Article PMC7659979, “Discovery and Evaluation of Enantiopure 9H-pyrimido[4,5-b]indoles as Nanomolar GSK-3β Inhibitors with Improved Metabolic Stability” (International Journal of Molecular Sciences, 2020)

Test: Microsomal stability assay (pooled male and female HLM, LC-MS)
Type: in vitro ADME, human
Details: HLM, incubation time of 120 min
Description: To this end, the compounds were incubated with pooled male and female HLM for 120 min, and the compound degradation as well as the formation of metabolites was monitored by liquid chromatography-mass spectrometry (LC-MS) analysis.
The inhibitory activity of the final compounds on GSK-3β was determined by the Promega ADP-Glo™ Kinase assay (Promega Corporation, Madison, WI 53711, USA), which was performed in white, non-treated 384-well plates (Corning). The experiments were carried out as quadruplicates using a concentration of 0.58 ng/µL of recombinant human GSK-3β, 0.2 µg/µL GSK-3 substrate G50-58 […]
(sequence: […](pS)EDEEE) and 25 µM ATP in the presence of serial dilutions of the final compounds. In addition, two control experiments with uninhibited kinase and two blank experiments with ATP/substrate solution were performed.
In detail, the kinase was pre-incubated with the final compounds for 10 min at rt. Then substrate/ATP was added to start the reaction, which was run for 1 h at rt. The next steps consisted of addition of ADP-Glo™ reagent (5 µL, then 1 h incubation) and Kinase detection reagent (10 µL, then 30 min incubation). Finally, the luminescence was measured on a FilterMax F5 microplate reader (Molecular Devices) (integration time 500 ms). GraphPad Prism v. 7.03. was used to normalize the raw data to the values of the control and blank experiments and generate absolute IC 50 values.
2. Interaction Frequencies of (R)-2 and (R)-28 in the 1 µs Molecular Dynamics Simulations
Figure S1. Observed interactions of (R)-2 (a) and (R)-28 (b) in the MD simulations. Both ligands […]
mediates water-bridged interactions to Asp200 or Ser66. Interactions with >10% frequency are shown.
3. Microsomal Stability Assay
Pooled male and female human liver microsomes (HLMs) (Lot: SLBQ7487V) were purchased from Merck (Schnelldorf, Germany). […]
The metabolite formation was analyzed with an Alliance 2695 Separations Module (Waters […]
The absorbance was read at 570 nm using a Spectramax i5 microplate reader. Results were expressed as percentage of control.

unchanged inhibitor detected after incubation: ~70%
Compound: CCC(=O)N1CCC[C@@H](N(C)c2ncnc3[nH]c4cc(Br)ccc4c23)C1 [Compound (R)-28, (R)-1-(3-((7-bromo-9H-pyrimido[4,5-b]indol-4-yl)(methyl)amino)piperidin-1-yl)propan-1-one]
